Measured values: US9963464B2, “Macrocyclic compounds” (Bayer Pharma Aktiengesellschaft, priority 2014, dated 2018)
pIC50: −log10 of the molar value.

Biological target: T1, CDK9/CycT1 (Homo sapiens, UniProt P50750)
T1 construct: Recombinant full-length His-tagged human CDK9 and CycT1; His; purchased Invitrogen PV4131; host or cells: insect cells
Assay: CDK9/CycT1 high ATP kinase assay (TR-FRET, Method 1b)
Type: biochemical
Conditions: for pIC50: Method 1b, 2 mM ATP; for Selectivity high ATP CDK9 over high ATP CDK2: IC50 (high ATP CDK2)/IC50 (high ATP CDK9): Methods 1b and 2b, minimal values where CDK9 IC50 is at the assay limit
Experimental: 1b. CDK9/CycT1 High ATP Kinase Assay
CDK9/CycT1-inhibitory activity of compounds of the present invention at a high ATP concentration after preincubation of enzyme and test compounds was quantified employing the CDK9/CycT1 TR-FRET assay as described in the following paragraphs.
Recombinant full-length His-tagged human CDK9 and CycT1, expressed in insect cells and purified by Ni-NTA affinity chromatography, were purchase from Invitrogen (Cat. No PV4131). As substrate for the kinase reaction biotinylated peptide biotin-Ttds-YISPLKSPYKISEG (C-terminus in amid form) was used which can be purchased e.g. from the company JERINI peptide technologies (Berlin, Germany). For the assay 50 nl of a 100 fold concentrated solution of the test compound in DMSO was pipetted into a black low volume 384 well microtiter plate (Greiner Bio-One, Frickenhausen, Germany), 2 μl of a solution of CDK9/CycT1 in aqueous assay buffer [50 mM Tris/HCl pH 8.0, 10 mM MgCl2, 1.0 mM dithiothreitol, 0.1 mM sodium ortho-vanadate, 0.01% (v/v) Nonidet-P40 (Sigma)] were added and the mixture was incubated for 15 min at 22° C. to allow pre-binding of the test compounds to the enzyme before the start of the kinase reaction. […] The concentration of CDK9/CycT1 was adjusted depending of the activity of the enzyme lot and was chosen appropriate to have the assay in the linear range, typical concentrations were in the range of 0.5 μg/mL. The reaction was stopped by the addition of 5 μl of a solution of TR-FRET detection reagents (0.2 μM streptavidine-XL665 [Cisbio Bioassays, Codolet, France] and 1 nM anti-RB(pSer807/pSer811)-antibody from BD Pharmingen [#558389] and 1.2 nM LANCE EU-W1024 labeled anti-mouse IgG antibody [Perkin-Elmer, product no. AD0077]) in an aqueous EDTA-solution (100 mM EDTA, 0.2% (w/v) bovine serum albumin in 100 mM HEPES pH 7.5).
The resulting mixture was incubated 1 h at 22° C. to allow the formation of complex between the phosphorylated biotinylated peptide and the detection reagents. Subsequently the amount of phosphorylated substrate was evaluated by measurement of the resonance energy transfer from the Eu-chelate to the streptavidine-XL. Therefore, the fluorescence emissions at 620 nm and 665 nm after excitation at 350 nm was measured in a HTRF reader, e.g. a Rubystar (BMG Labtechnologies, Offenburg, Germany) or a Viewlux (Perkin-Elmer). The ratio of the emissions at 665 nm and at […] was taken as the measure for the amount of phosphorylated substrate. The data were normalised (enzyme reaction without inhibitor=0% inhibition, all other assay components but no enzyme=100% inhibition).

T1 sequence (P50750 whole entry): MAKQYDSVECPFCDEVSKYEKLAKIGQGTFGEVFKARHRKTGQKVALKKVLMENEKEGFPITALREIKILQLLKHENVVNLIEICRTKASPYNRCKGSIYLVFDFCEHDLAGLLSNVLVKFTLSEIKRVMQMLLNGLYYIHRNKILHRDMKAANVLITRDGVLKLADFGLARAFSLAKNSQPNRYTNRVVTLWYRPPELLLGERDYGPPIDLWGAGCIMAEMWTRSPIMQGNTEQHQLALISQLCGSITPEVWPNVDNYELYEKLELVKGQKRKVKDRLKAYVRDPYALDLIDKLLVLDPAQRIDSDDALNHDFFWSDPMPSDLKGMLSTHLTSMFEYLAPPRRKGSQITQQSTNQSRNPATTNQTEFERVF
T1 sequence (O60563 whole entry partner): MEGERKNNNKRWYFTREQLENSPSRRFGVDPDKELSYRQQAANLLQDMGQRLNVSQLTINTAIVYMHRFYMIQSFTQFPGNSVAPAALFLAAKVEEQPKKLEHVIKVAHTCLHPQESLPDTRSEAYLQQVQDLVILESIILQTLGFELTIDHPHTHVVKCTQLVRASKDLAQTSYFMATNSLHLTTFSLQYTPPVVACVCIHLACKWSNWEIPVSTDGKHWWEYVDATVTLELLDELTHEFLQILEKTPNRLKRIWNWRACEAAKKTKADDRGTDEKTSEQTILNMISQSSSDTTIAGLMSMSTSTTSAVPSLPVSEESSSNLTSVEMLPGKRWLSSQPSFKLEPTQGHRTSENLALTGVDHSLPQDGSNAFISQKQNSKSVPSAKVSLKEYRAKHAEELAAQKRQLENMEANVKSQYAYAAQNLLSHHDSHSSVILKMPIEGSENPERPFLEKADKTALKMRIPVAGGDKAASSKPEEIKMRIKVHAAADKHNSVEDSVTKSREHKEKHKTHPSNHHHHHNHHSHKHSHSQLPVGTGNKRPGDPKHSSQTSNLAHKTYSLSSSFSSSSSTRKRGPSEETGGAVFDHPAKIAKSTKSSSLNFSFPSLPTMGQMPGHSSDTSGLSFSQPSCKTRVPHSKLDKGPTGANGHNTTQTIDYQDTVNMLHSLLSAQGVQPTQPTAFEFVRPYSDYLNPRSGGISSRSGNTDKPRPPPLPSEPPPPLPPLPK

| Compound | pIC50 | Selectivity high ATP CDK9 over high ATP CDK2: IC50 (high ATP CDK2)/IC50 (high ATP CDK9) |
| --- | --- | --- |
| CS(=O)(=O)N=S(C)(=O)Cc1cc2nc(c1)OCCCOc1cc(F)ccc1-c1cc(ncc1F)N2 (racemic) [Example 22, (rac)-N-[{[15,19-difluoro-3,4-dihydro-2H,11H-10,6-(azeno)-12,16-(metheno)-1,5,11,13-benzodioxadiazacyclooctadecin-8-yl]methyl}(methyl)oxido-λ^6-sulfanylidene]methanesulfonamide] | 8.57 | 71.6 |
| CC(=O)N=S(C)(=O)Cc1cc2nc(c1)OCCCOc1cc(F)ccc1-c1cc(ncc1F)N2 (racemic) [Example 18, (rac)-N-[{[15,19-difluoro-3,4-dihydro-2H,11H-10,6-(azeno)-12,16-(metheno)-1,5,11,13-benzodioxadiazacyclooctadecin-8-yl]methyl}(methyl)oxido-λ^6-sulfanylidene]acetamide] | 8.54 | 21.7 |
| CS(=O)(Cc1cc2nc(c1)OCCCOc1cc(F)ccc1-c1cc(ncc1F)N2)=NC(=O)OCCN (racemic) [Example 25, (rac)-2-aminoethyl [{[15,19-difluoro-3,4-dihydro-2H,11H-10,6-(azeno)-12,16-(metheno)-1,5,11,13-benzodioxadiazacyclooctadecin-8-yl]methyl}(methyl)oxido-λ^6-sulfanylidene]carbamate] | 8.52 | 6.1 |
| CS(=O)(Cc1cc2nc(c1)OCCCOc1cc(F)ccc1-c1cc(ncc1F)N2)=NS(=O)(=O)CCN.O=C(O)C(F)(F)F (racemic) [Example 24, (rac)-2-{[{[15,19-difluoro-3,4-dihydro-2H,11H-10,6-(azeno)-12,16-(metheno)-1,5,11,13-benzodioxadiazacyclooctadecin-8-yl]methyl}(methyl)oxido-λ^6-sulfanylidene]sulfamoyl}ethanaminium trifluoroacetate] | 8.74 | 90.4 |
| CCNC(=O)N=S(C)(=O)Cc1cc2nc(c1)OCCCOc1cc(F)ccc1-c1cc(ncc1F)N2 (racemic) [Example 17, (rac)-1-[{[15,19-difluoro-3,4-dihydro-2H,11H-10,6-(azeno)-12,16-(metheno)-1,5,11,13-benzodioxadiazacyclooctadecin-8-yl]methyl}(methyl)oxido-λ^6-sulfanylidene]-3-ethylurea] | 8.57 | 13.5 |
| NCCS(=O)(=O)Cc1cc2nc(c1)OCCCOc1cc(F)ccc1-c1cc(ncc1F)N2 [Example 26, 2-({[15,19-difluoro-3,4-dihydro-2H,11H-10,6-(azeno)-12,16-(metheno)-1,5,11,13-benzodioxadiazacyclooctadecin-8-yl]methyl}sulfonyl)ethanamine] | 8.47 | 13.0 |
| CCOC(=O)N=S(C)(=O)Cc1cc2nc(c1)OCCCOc1cc(F)ccc1-c1cc(ncc1F)N2 (racemic) [Example 20, (rac)-ethyl [{[15,19-difluoro-3,4-dihydro-2H,11H-10,6-(azeno)-12,16-(metheno)-1,5,11,13-benzodioxadiazacyclooctadecin-8-yl]methyl}(methyl)oxido-λ^6-sulfanylidene]carbamate] | 8.47 | 13.2 |
| CN=S(C)(=O)Cc1cc2nc(c1)OCCCOc1cc(F)ccc1-c1cc(ncc1F)N2 (racemic) [Example 19, (rac)-8-[(N,S-dimethylsulfonimidoyl)methyl]-15,19-difluoro-3,4-dihydro-2H,11H-10,6-(azeno)-12,16-(metheno)-1,5,11,13-benzodioxadiazacyclooctadecine] | 8.72 | 81.7 |
| CS(=O)(Cc1cc2nc(c1)OCCCOc1cc(F)ccc1-c1cc(ncc1F)N2)=NC(=O)OCCCl (racemic) [Example 21, (rac)-2-chloroethyl [{[15,19-difluoro-3,4-dihydro-2H,11H-10,6-(azeno)-12,16-(metheno)-1,5,11,13-benzodioxadiazacyclooctadecin-8-yl]methyl}(methyl)oxido-λ^6-sulfanylidene]carbamate] | 8.23 | 12.7 |
| CSCc1cc2nc(c1)OCCOc1cc(F)ccc1-c1cc(ncc1F)N2 [Example 9, 14,18-Difluoro-7-[(methylsulfanyl)methyl]-2,3-dihydro-10H-9,5-(azeno)-11,15-(metheno)-1,4,10,12-benzodioxadiazacycloheptadecine] | 7.19 | >307 |
| CS(=O)(Cc1cc2nc(c1)OCCCOc1cc(F)ccc1-c1cc(ncc1F)N2)=NS(=O)(=O)CCN (racemic) [Example 23, (rac)-2-amino-N-[{[15,19-difluoro-3,4-dihydro-2H,11H-10,6-(azeno)-12,16-(metheno)-1,5,11,13-benzodioxadiazacyclooctadecin-8-yl]methyl}(methyl)oxido-λ^6-sulfanylidene]ethanesulfonamide] | 8.41 | 69.5 |
| ({[15,19-difluoro-3,4-dihydro-2H,11H-10,6-(azeno)-12,16-(metheno)-1,5,11,13-benzodioxadiazacyclooctadecin-8-yl]methyl}sulfonyl)acetic acid [Example 27] | 8.77 | 3.7 |
